Values quoted from earlier work as cited in patent publication US6610471B1, “Methods and compositions to investigate infection by hepatitis B virus and agents to prevent and treat the infection” (priority 1998, dated 2003).

System: chronic HBV infection
Details: patients receiving interferon-α treatment, long-term studies; cited from earlier work

interferon-α
patients with loss of circulating HBV antigens and improved survival rate: about 30 % of patients
